Assay type in all cases: cell-based
Assay [1] deals with T1, human Nav1.7 (Homo sapiens, UniProt Q15858). As to the kind of experiment: FLIPR sodium dye assay (CoroNa Green AM Na+ dye, primary fluorescence assay) in recombinant Nav1.7/HEK293 cells. To be noted: Table 6; CoroNa Green AM Na+ dye primary fluorescence assay; read-out: Nav1.7 Activity (μM) FLIPR assay IC50.
The target in the next assay is hNav1.7 (Homo sapiens, UniProt Q15858). As to the kind of experiment: Electrophysiology (EP) whole-cell patch clamp assay in hNav1.7 expressing HEK-293 cells. To be noted: Table 6; for Ki: affinity for inactivated channels, read-out: Nav1.7 Activity (μM) EP assay Ki; for Kd: resting block dissociation constant, read-out: Nav1.7 Activity (μM) EP assay Kr. The protocol: The hNav1.7 expressing HEK-293 cells were plated on 35 mm culture dishes pre-coated with poly-D-lysine in standard DMEM culture media (Mediatech, Inc., Herndon, Va.) and incubated in a 5% CO2 incubator at 37° C. Cultured cells were used approximately 12-48 h after plating.
Chain of hNav1.7 (Q15858 1-1977 isoform Q15858-3): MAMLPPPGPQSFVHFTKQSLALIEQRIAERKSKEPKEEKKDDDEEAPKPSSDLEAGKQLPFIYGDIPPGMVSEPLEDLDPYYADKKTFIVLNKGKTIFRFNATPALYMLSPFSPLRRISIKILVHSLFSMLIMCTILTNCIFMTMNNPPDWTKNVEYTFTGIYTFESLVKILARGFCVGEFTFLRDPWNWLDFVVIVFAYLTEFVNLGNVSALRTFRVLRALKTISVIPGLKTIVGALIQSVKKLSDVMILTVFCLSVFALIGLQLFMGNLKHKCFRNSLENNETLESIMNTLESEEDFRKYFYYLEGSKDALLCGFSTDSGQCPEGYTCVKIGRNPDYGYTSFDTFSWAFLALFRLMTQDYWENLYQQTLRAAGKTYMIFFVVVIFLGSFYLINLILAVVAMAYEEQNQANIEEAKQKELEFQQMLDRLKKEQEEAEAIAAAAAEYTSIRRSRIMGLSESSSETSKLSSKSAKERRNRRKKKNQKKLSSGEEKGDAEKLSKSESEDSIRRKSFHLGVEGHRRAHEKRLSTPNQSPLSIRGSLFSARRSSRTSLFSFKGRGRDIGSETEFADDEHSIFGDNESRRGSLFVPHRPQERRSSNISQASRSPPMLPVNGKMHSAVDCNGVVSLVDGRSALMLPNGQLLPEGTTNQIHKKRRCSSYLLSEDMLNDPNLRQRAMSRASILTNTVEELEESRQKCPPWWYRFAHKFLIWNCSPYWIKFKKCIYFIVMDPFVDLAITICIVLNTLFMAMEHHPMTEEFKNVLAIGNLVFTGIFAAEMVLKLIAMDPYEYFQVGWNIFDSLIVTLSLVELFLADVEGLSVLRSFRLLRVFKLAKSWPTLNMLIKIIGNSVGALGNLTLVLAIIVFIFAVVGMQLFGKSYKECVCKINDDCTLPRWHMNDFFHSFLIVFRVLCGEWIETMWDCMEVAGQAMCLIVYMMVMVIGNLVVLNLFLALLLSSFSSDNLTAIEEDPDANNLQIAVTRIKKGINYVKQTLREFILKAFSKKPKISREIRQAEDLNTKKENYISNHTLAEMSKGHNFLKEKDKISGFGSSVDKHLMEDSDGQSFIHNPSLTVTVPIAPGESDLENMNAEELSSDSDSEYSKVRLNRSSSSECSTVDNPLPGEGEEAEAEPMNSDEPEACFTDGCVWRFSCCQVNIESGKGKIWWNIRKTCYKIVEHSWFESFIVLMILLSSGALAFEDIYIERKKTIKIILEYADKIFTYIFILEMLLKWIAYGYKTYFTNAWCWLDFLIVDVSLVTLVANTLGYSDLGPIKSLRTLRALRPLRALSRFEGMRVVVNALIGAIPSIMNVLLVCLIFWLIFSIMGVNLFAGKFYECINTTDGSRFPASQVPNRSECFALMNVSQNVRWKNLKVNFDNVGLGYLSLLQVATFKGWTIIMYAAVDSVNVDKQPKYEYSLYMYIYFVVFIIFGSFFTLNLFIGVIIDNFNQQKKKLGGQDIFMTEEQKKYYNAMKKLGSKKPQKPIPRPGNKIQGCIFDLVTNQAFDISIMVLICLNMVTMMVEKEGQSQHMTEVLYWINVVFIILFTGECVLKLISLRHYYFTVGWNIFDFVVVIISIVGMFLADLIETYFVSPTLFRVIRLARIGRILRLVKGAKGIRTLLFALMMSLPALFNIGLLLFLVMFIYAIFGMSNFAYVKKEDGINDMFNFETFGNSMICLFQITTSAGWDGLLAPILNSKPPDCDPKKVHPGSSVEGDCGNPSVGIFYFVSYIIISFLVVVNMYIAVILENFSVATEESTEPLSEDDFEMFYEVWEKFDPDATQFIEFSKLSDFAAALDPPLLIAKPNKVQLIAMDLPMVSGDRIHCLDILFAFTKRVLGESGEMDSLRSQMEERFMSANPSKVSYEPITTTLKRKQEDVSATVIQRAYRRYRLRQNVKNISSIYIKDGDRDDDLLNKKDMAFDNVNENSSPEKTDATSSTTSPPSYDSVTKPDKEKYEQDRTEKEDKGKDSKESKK
On the day of experimentation, the 35 mm dish was placed on the stage of an inverted microscope equipped with a perfusion system that continuously perfuses the culture dish with fresh recording media. A gravity driven superfusion system was used to apply test solutions directly to the cell under evaluation. This system consists of an array of glass pipette glass connected to a motorized horizontal translator. The outlet of the shooter was positioned approximately 100 μm from the cell of interest.
Whole cell currents were recorded using the whole-cell patch clamp configuration using an Axopatch 200B amplifier (Axon Instruments, Foster City Calif.), 1322A A/D converter (Axon Instruments) and pClamp software (v. 8; Axon Instruments) and stored on a personal computer. Gigaseals were formed and the whole-cell configuration was established in voltage clamp mode, and membrane currents generated by hNav1.7 were recorded in gap-free mode. Borosilicate glass pipettes have resistance values between 1.5 and 2.0 MΩ when filled with pipette solution and series resistance (<5 MΩ) was compensated 75-80%. Signals were sampled at 50 kHz and low pass filtered at 3 kHz.
After establishing the whole-cell configuration in voltage clamp mode, two voltage protocols were run to establish: 1) the holding potential; and 2) the test potential for each cell.
To determine a membrane potential at which the majority of channels are in the resting state, a standard steady-state inactivation (SSIN) protocol was run using 100 ms prepulses×10 mV depolarizing steps. The holding potential for testing resting block (Vh1) was 20 mV more hyperpolarized than the first potential where inactivation is observed with the inactivation protocol.
From this holding potential a standard I-V protocol was run to determine the potential at which the maximal current (Imax) was elicited. This potential was the test potential (Vt).
The compound testing protocol was a series of 10 ms depolarizations from the Vh1 (determined from the SSIN) to the Vt (determined from the I-V protocol) repeated every 10-15 seconds. […] Washout of the compound was attempted by superfusing with control solution once steady-state block was observed. The fractional response was calculated as follows: FR=I(after drug)/I(control), where I is the peak current amplitude and was used for estimating resting block dissociation constant, Kr: Kr=[drug]*{FR/(1−FR)}, where [drug] is the concentration of a drug.
To assess the block of inactivated channels the holding potential was depolarized such that 20-50% of the current amplitude was reduced when pulsed to the same Vt as above. The magnitude of this depolarization depends upon the initial current amplitude and the rate of current loss due to slow inactivation. This was the second holding potential (Vh2). The current reduction was recorded to determine the fraction of available channels at this potential (h). h=I@Vh2/Imax.
At this membrane voltage a proportion of channels are in the inactivated state, and thus inhibition by a blocker includes interaction with both resting and inactivated channels.
To determine the potency of the test compound on inactivated channels, a series of currents were elicited by 10 ms voltage steps from Vh2 to Vt every 10-15 seconds. After establishing a stable baseline, the low concentration of the compound was applied. Multiple cumulative concentrations may have to be applied to identify a concentration that will block between 40-60% of the current. Washout was attempted to re-establish baseline. Fractional responses were measured with respect to a projected baseline to determine Kapp. Kapp=[drug]*{FR/(1−FR)}, where [drug] is the concentration of a drug. […]
Background: Patch clamp records ionic current or voltage across a cell membrane.

The target in assay [2] is T1, human Nav1.7. The experiment in a line: FLIPR membrane potential dye assay (alternative fluorescence assay) in Nav1.7 expressing cells. To be noted: Table 7.

As usually defined, the IC50 is the midpoint of a concentration-inhibition curve.

Molecules are shown by their SMILES.

T1 sequence (Q15858 1-1977 isoform Q15858-3): as above

In the case of `NC(=O)c1cc(N[C@H]2CCNC2=O)nc(-c2ccc(Oc3ccc(C4CC4)cn3)cc2)n1` [compound 142, (S)-2-(4-((5-cyclopropylpyridin-2-yl)oxy)phenyl)-6-((2-oxopyrrolidin-3-yl)amino)pyrimidine-4-carboxamide], the half-maximal inhibitory concentration (IC50) at human Nav1.7 [1] was 0.064 µM. At hNav1.7, the Ki was found to be 0.3 µM and the Kd worked out at 26.8 µM. Turning to `NC(=O)c1cc(N[C@H]2CCNC2=O)nc(-c2ccc(Oc3ccc(Cl)cn3)cc2)n1` [compound 133, (S)-2-(4-((5-chloropyridin-2-yl)oxy)phenyl)-6-((2-oxopyrrolidin-3-yl)amino)pyrimidine-4-carboxamide], on human Nav1.7 [1], the IC50 is 0.39 µM. Further, on hNav1.7, the Ki worked out at 0.57 µM and the Kd came to 7.17 µM.

For `NC(=O)c1cc(N[C@H]2CCNC2=O)nc(-c2ccc(Oc3cccc(F)n3)cc2)n1` [compound 134, (S)-2-(4-((6-fluoropyridin-2-yl)oxy)phenyl)-6-((2-oxopyrrolidin-3-yl)amino) pyrimidine-4-carboxamide], the IC50 on human Nav1.7 [1] was found to be 2.42 µM. On hNav1.7, the Ki was determined as 0.82 µM and the Kd was 22.1 µM. Molecule `Cn1cc(COc2ccc(-c3nc(N[C@H]4CCNC4=O)cc(C(N)=O)n3)cc2)cn1` [Cpd No. 233, (S)-2-(4-((1-methyl-1H-pyrazol-4-yl)methoxy)phenyl)-6-((2-oxopyrrolidin-3-yl)amino)-pyrimidine-4-carboxamide] came in with an IC50 at human Nav1.7 [2] of 10 to 20 µM. As to `NC(=O)c1cc(N[C@H]2CCNC2=O)nc(-c2ccc(Cc3ccc(C(F)(F)F)cn3)cc2)n1` [Cpd No. 190, (S)-6-((2-oxopyrrolidin-3-yl)amino)-2-(4-((5-(trifluoro-methyl)pyridin-2-yl)methyl)-phenyl)pyrimidine-4-carboxamide], the IC50 at human Nav1.7 [1] came out at 1.61 µM. The Ki at hNav1.7 was 0.29 µM. In the same order, the values of `NC(=O)c1cc(N[C@H]2CCNC2=O)nc(N2[C@@H]3CC[C@H]2C[C@H](Oc2ccc(C(F)(F)F)cn2)C3)n1` [Cpd No. 183, 6-(((S)-2-oxopyrrolidin-3-yl)amino)-2-((1R,3R,5S)-3-((5-(trifluoromethyl)pyridin-2-yl)oxy)-8-azabicyclo[3.2.1]octan-8-yl)pyrimidine-4-carboxamide] are 1.27 µM and 0.49 µM. On to `NC(=O)c1cc(N[C@H]2CCNC2=O)nc(-c2ccc(Oc3cc(Cl)ccc3F)cc2)n1` [compound 117, (S)-2-(4-(5-chloro-2-fluorophenoxy)phenyl)-6-((2-oxopyrrolidin-3-yl)amino)pyrimidine-4-carboxamide], for which the IC50 at human Nav1.7 [1] came to 0.2 µM. On hNav1.7, the Ki is 0.027 µM and the Kd stood at 0.83 µM.

With `C[C@H](Oc1cc(C(N)=O)nc(-c2ccc(Oc3ccc(C(F)(F)F)cn3)cc2)n1)C(N)=O` [compound 146, (S)-6-((1-amino-1-oxopropan-2-yl)oxy)-2-(4-((5-(trifluoromethyl)pyridin-2-yl)oxy)phenyl)pyrimidine-4-carboxamide], the IC50 on human Nav1.7 [1] was 0.52 µM. On hNav1.7, the Ki stood at 1.25 µM and the Kd is 18.3 µM. `CC(C)N1CCN(c2cc(C(N)=O)nc(-c3ccc(Oc4ccc(F)cc4)cc3)n2)C(C(N)=O)C1` (centres unmarked) [compound 112, 6-(2-carbamoyl-4-isopropylpiperazin-1-yl)-2-(4-(4-fluorophenoxy)phenyl)pyrimidine-4-carboxamide]: the IC50 at human Nav1.7 [1] stood at 0.38 µM. Turning to `NC(=O)c1cc(N[C@H]2CCNC2=O)nc(N2C3CCC2CC(Oc2ccc(C(F)(F)F)cn2)C3)n1` (stereo partly drawn) [compound 140, 6-(((S)-2-oxopyrrolidin-3-yl)amino)-2-(3-((5-(trifluoromethyl)pyridin-2-yl)oxy)-8-azabicyclo[3.2.1]octan-8-yl)pyrimidine-4-carboxamide], the IC50 at human Nav1.7 [1] came out at 0.38 µM. Besides, at hNav1.7, the Ki was found to be 2.55 µM and the Kd stood at 46.2 µM. As to `NC(=O)c1cc(N[C@H]2CCNC2=O)nc(-c2ccc(Nc3ccc(F)cc3)c(N)c2)n1` [Cpd No. 212, (S)-2-(3-amino-4-((4-fluoro-phenyl)amino)phenyl)-6-((2-oxopyrrolidin-3-yl)amino)-pyrimidine-4-carboxamide], the IC50 at human Nav1.7 [1] turned out to be 4.73 µM. For the molecule `CN(C)Cc1cc(Oc2ccc(C(F)(F)F)cc2)ccc1-c1nc(N[C@H]2CCNC2=O)cc(C(N)=O)n1` [Cpd No. 201, (S)-2-(2-((dimethylamino)-methyl)-4-(4-(trifluoromethyl)-phenoxy)phenyl)-6-((2-oxopyrrolidin-3-yl)-amino)pyrimidine-4-carboxamide], the IC50 at human Nav1.7 [1] was over 20 µM. On the same count and under the same terms, next, `NC(=O)c1cc(N[C@H]2CCNC2=O)nc(-c2ccc(Oc3ccc(C(F)(F)F)cc3)c(N3CCCCC3)c2)n1` [Cpd No. 209, (S)-6-((2-oxopyrrolidin-3-yl)amino)-2-(3-(piperidin-1-yl)-4-(4-(trifluoromethyl)phenoxy)-phenyl)pyrimidine-4-carboxamide]: over 20 µM; `NC(=O)c1cc(N[C@H]2CCNC2=O)nc(-c2ccc(Oc3ccc(C(F)(F)F)c(C4=CCNCC4)c3)cc2)n1` [Cpd No. 205, (S)-6-((2-oxopyrrolidin-3-yl)amino)-2-(4-(3-(1,2,3,6-tetrahydropyridin-4-yl)-4-(trifluoromethyl)phenoxy)phenyl)pyrimidine-4-carboxamide]: over 20 µM; `NC(=O)c1cc(N[C@H]2CCNC2=O)nc(-c2ccc(Oc3ccc(C(F)(F)F)cc3C3=CCNCC3)cc2)n1` [Cpd No. 206, (S)-6-((2-oxopyrrolidin-3-yl)amino)-2-(4-(2-(1,2,3,6-tetrahydropyridin-4-yl)-4-(trifluoromethyl)phenoxy)phenyl)pyrimidine-4-carboxamide]: 5.28 µM.

For the molecule `C[C@@H](Nc1cc(C(N)=O)nc(-c2ccc(Oc3ccc(C(C)(C)C)cc3)cc2)n1)C(N)=O` [compound 110, (R)-6-((1-amino-1-oxopropan-2-yl)amino)-2-(4-(4-(tert-butyl)phenoxy)phenyl)pyrimidine-4-carboxamide], at human Nav1.7 [1], the IC50 is 0.2 µM. Still for that read-out and setting: next, `NC(=O)c1cc(N[C@H]2CCNC2=O)nc(-c2ccc(Oc3ccc(F)cc3)cc2CN2CCCCC2)n1` [compound 158, (S)-2-(4-(4-fluorophenoxy)-2-(piperidin-1-ylmethyl)phenyl)-6-((2-oxopyrrolidin-3-yl)amino)pyrimidine-4-carboxamide]: 0.89 µM. For the molecule `NC(=O)c1cc(N[C@H]2CCNC2=O)nc(-c2ccc(Oc3ccc(COCC(F)(F)F)cn3)cc2)n1` [compound 145, (S)-6-((2-oxopyrrolidin-3-yl)amino)-2-(4-((5-((2,2,2-trifluoroethoxy)methyl)pyridin-2-yl)oxy)phenyl)pyrimidine-4-carboxamide], the IC50 on human Nav1.7 [1] was found to be 1.38 µM. Still for that read-out and setting: then `C[C@H](Nc1cc(C(N)=O)nc(-c2ccc(Oc3ccc(C(C)(C)C)cc3)cc2)n1)C(N)=O` [compound 171, (S)-6-((1-amino-1-oxopropan-2-yl)amino)-2-(4-(4-(tert-butyl)phenoxy)phenyl)pyrimidine-4-carboxamide], with 0.25 µM; and `NC(=O)c1cc(N[C@H]2CCNC2=O)nc(-c2ccc(Oc3ccc(F)cc3)cc2CN2CCOCC2)n1` [Cpd No. 187, (S)-2-(4-(4-fluorophenoxy)-2-(morpholinomethyl)phenyl)-6-((2-oxopyrrolidin-3-yl)amino)-pyrimidine-4-carboxamide], with 5.67 µM.

Consider `NC(=O)c1cc(N[C@H]2CCNC2=O)nc(N2[C@@H]3CC[C@H]2C[C@H](Oc2ccc(F)cc2Cl)C3)n1` [Cpd No. 182, 2-((1R,3R,5S)-3-(2-chloro-4-fluorophenoxy)-8-azabicyclo[3.2.1]octan-8-yl)-6-(((S)-2-oxopyrrolidin-3-yl)amino)pyrimidine-4-carboxamide], for which, at human Nav1.7 [1], the IC50 worked out at 0.35 µM.

For the origin of these results see patent US10196364B2, “Pyrimidine carboxamides as sodium channel blockers” (Purdue Pharma L.P., priority 2013, dated 2019).
